According to US8691855B2, “Compounds, isomer thereof, or pharmaceutically acceptable salts thereof as vanilloid receptor antagonist and pharmaceutical compositions containing the same” (Amorepacific Corporation, priority 2008, dated 2014):

Legend:
[1] = target: T1, vanilloid receptor (Rattus norvegicus, UniProt O35433); assay: 45Ca influx test (antagonist calcium uptake test) in rat DRG neurons stimulated with capsaicin; format: cell-based; conditions: neonatal SD rat DRG neurons; capsaicin 0.5 μM; 45Ca
T1 construct: DRG nerve cells from the primary culture of 2 days were equilibrated; endogenous in cells; host or cells: primary culture of dorsal root ganglion neurons from neonatal SD rats
Outline: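 Neonatal SD rat DRG neurons, cultured 2 days with NGF 200 ng/ml, exposed to test compound plus 0.5 μM capsaicin and 45Ca (10 μCi/ml) in HEPES-buffered Ca/Mg-free HBSS, pH 7.4, 10 min at room temperature. Influx counted by scintillation; activity as percent inhibition of the 0.5 μM capsaicin maximal response.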

[2] = test system: Male ICR mice; assay: Analgesic activity test: mouse writhing test by inducing with phenyl-p-quinone; format: in vivo; conditions: po, p.o., read-out: Analgesic effect (% Inhibition)
Protocol: 2. Analgesic Activity Test: Mouse Writhing Test by Inducing with Phenyl-p-quinone Male ICR mice (mean body weight 25 g) were maintained in a controlled lighting environment (12 h on/12 h off) for experiment. Animals received an intraperitoneal injection of 0.3 ml of the chemical irritant phenyl-p-quinone (dissolved in saline containing 5% ethanol to be a close of 4.5 mg/kg) and 6 mins later, the number of abdominal constrictions was counted in the subsequent 6 mins period. Animals (10 animals/group) received 0.2 ml of test compounds solution in vehicle of ethanol/Tween 80/saline (Oct. 10, 1980) intraperitoneally 30 min before the injection of phenyl-p-quinone. In the case of oral administration, 0.2 ml of test compounds solution in vehicle of ethanol/Tween 80/saline (5/5/90) were administered 54 min prior to the 0.2 ml of 0.02% phenyl-p-quinone injection. A reduction in the number of writhes responding to the test drug compound relative to the number responding in saline control group was considered to be indicative of an analgesic effect. Analgesic effect was calculated by % inhibition equation (% inhibition=(C-T)/C×100), wherein C and T represent the number of writhes in control and compound-treated group, respectively.

T1 sequence (O35433 whole entry): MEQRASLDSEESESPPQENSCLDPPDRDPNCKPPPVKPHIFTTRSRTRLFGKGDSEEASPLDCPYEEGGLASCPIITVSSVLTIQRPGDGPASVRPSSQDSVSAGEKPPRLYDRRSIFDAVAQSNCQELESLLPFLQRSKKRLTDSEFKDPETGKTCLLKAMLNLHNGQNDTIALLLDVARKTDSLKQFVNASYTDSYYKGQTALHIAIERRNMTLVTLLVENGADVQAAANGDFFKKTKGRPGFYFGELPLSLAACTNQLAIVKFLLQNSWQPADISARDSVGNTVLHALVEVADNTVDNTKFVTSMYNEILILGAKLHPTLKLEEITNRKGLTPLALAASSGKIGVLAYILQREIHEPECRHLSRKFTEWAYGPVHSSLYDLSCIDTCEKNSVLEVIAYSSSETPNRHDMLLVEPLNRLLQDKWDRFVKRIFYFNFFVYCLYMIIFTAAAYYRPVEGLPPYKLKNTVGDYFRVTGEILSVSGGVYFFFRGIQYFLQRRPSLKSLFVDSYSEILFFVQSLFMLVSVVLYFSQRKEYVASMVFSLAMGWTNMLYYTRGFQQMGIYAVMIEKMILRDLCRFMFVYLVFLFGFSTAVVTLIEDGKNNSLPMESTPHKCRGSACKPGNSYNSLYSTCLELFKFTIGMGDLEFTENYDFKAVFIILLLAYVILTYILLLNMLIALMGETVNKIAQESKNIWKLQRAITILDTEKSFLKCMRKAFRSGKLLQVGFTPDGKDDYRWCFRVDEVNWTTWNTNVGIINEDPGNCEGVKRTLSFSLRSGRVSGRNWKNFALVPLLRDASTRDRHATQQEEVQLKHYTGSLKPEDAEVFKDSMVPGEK

Compound | IC50 [1] [nM] | inhibition in vivo at 3 mg/kg [2] [%] | inhibition in vivo at 0.3 mg/kg [2] [%]
C[C@@H](NC(=O)c1csc(-c2cc(C(F)(F)F)cc(C(F)(F)F)c2)n1)c1cc(F)c(NS(C)(=O)=O)c(F)c1 [Example 93, 2-(3,5-Bis-trifluoromethyl-phenyl)-thiazole-4-carboxylic acid [1-(3,5-difluoro-4-methanesulfonylamino-phenyl)-ethyl]-amide] | 910 | 41 | –
CCCc1c(Oc2nc(C(=O)N[C@H](C)c3cc(F)c(NS(C)(=O)=O)c(F)c3)co2)cccc1C(F)(F)F [Example 42, 2-(2-Propyl-3-trifluoromethyl-phenoxy)-oxazole-4-carboxylic acid [1-(3,5-difluoro-4-methanesulfonylamino-phenyl)-ethyl]-amide] | 130 | – | 30
C[C@@H](NC(=O)c1coc(-c2cc(C(F)(F)F)cc(C(F)(F)F)c2)n1)c1cc(F)c(NS(C)(=O)=O)c(F)c1 [Example 87, 2-(3,5-Bis-trifluoromethyl-phenyl)-oxazole-4-carboxylic acid [1-(3,5-difluoro-4-methanesulfonylamino-phenyl)-ethyl]-amide] | 140 | 59 | –
C[C@@H](NC(=O)c1ccc(-c2cccc(C(F)(F)F)c2)o1)c1cc(F)c(NS(C)(=O)=O)c(F)c1 [Example 120, (R)-5-(3-Trifluoromethyl-phenyl)-furan-2-carboxylic acid [1-(3,5-difluoro-4-methanesulfonylamino-phenyl)-ethyl]-amide] | 64 | 60 | –
CC(C)c1cccc(-c2nc(C(=O)N[C@H](C)c3cc(F)c(NS(C)(=O)=O)c(F)c3)co2)c1 [Example 69, 2-(3-Isopropyl-phenyl)-oxazole-4-carboxylic acid [1-(3,5-difluoro-4-methanesulfonylamino-phenyl)-ethyl]-amide] | 160 | – | 35
CC1CCc2c(Oc3nc(C(=O)N[C@H](C)c4cc(F)c(NS(C)(=O)=O)c(F)c4)co3)cccc21 (stereo partly shown) [Example 30, 2-(1-Methyl-indan-4-yloxy)-oxazole-4-carboxylic acid [1-(3,5-difluoro-4-methanesulfonylamino-phenyl)-ethyl]-amide] | 50 | 16 | –
C[C@@H](NC(=O)c1coc(Oc2cccc(C(C)(C)C)c2)n1)c1cc(F)c(NS(C)(=O)=O)c(F)c1 [Example 1, 2-(3-tert-Butyl-phenoxy)-oxazole-4-carboxylic acid [1-(3,5-difluoro-4-methanesulfonylamino-phenyl)-ethyl]-amide] | 150 | 21 | –
C[C@@H](NC(=O)c1csc(-c2cccc(C3CC3)c2)n1)c1cc(F)c(NS(C)(=O)=O)c(F)c1 [Example 101, 2-(3-Cyclopropyl-phenyl)-thiazole-4-carboxylic acid [1-(3,5-difluoro-4-methanesulfonylamino-phenyl)-ethyl]-amide] | 73 | 33 | –
CC(C)c1cccc(Oc2nc(C(=O)N[C@H](C)c3cc(F)c(NS(C)(=O)=O)c(F)c3)co2)c1 [Example 4, 2-(3-Isopropyl-phenoxy)-oxazole-4-carboxylic acid [1-(3,5-difluoro-4-methanesulfonylamino-phenyl)-ethyl]-amide] | 80 | 28 | –
C[C@@H](NC(=O)c1ccc(-c2cccc(C3CC3)c2)o1)c1cc(F)c(NS(C)(=O)=O)c(F)c1 [Example 102, 5-(3-Cyclopropyl-phenyl)-furan-2-carboxylic acid [1-(3,5-difluoro-4-methanesulfonylamino-phenyl)-ethyl]-amide] | 100 | 58 | –
CC(C)c1cccc(-c2nc(C(=O)N[C@H](C)c3cc(F)c(NS(C)(=O)=O)c(F)c3)cs2)c1 [Example 80, 2-(3-Isopropyl-phenyl)-thiazole-4-carboxylic acid [1-(3,5-difluoro-4-methanesulfonylamino-phenyl)-ethyl]-amide] | 30 | 22 | –
CS(=O)(=O)Nc1ccc(CNC(=O)c2ccc(-c3cccc(C(F)(F)F)c3)o2)cc1F [Example 118, 5-(3-Trifluoromethyl-phenyl)-furan-2-carboxylic acid 3-fluoro-4-methanesulfonylamino-benzylamide] | 370 | 42 | –
C[C@@H](NC(=O)c1csc(-c2cccc(C(F)(F)F)c2)n1)c1cc(F)c(NS(C)(=O)=O)c(F)c1 [Example 94, 2-(3-Trifluoromethyl-phenyl)-thiazole-4-carboxylic acid [1-(3,5-difluoro-4-methanesulfonylamino-phenyl)-ethyl]-amide] | 360 | 46 | –
C[C@@H](NC(=O)c1coc(Oc2cccc(C3CC3)c2)n1)c1cc(F)c(NS(C)(=O)=O)c(F)c1 [Example 32, 2-(3-Cyclopropyl-phenoxy)-oxazole-4-carboxylic acid [1-(3,5-difluoro-4-methanesulfonylamino-phenyl)-ethyl]-amide] | 280 | 32 | –
C[C@@H](NC(=O)c1ccc(-c2cc(C(F)(F)F)cc(C(F)(F)F)c2)o1)c1cc(F)c(NS(C)(=O)=O)c(F)c1 [Example 123, 5-(3,5-Bis-trifluoromethyl-phenyl)-furan-2-carboxylic acid [1-(3,5-difluoro-4-methanesulfonylamino-phenyl)-ethyl]-amide] | 45 | – | 21
C[C@@H](NC(=O)c1coc(-c2ccc(Cl)c(C(F)(F)F)c2)n1)c1cc(F)c(NS(C)(=O)=O)c(F)c1 [Example 91, 2-(4-Chloro-3-trifluoromethyl-phenyl)-oxazole-4-carboxylic acid [1-(3,5-difluoro-4-methanesulfonylamino-phenyl)-ethyl]-amide] | 210 | 25 | –
C[C@@H](NC(=O)c1coc(-c2cccc(C3CC3)c2)n1)c1cc(F)c(NS(C)(=O)=O)c(F)c1 [Example 100, 2-(3-Cyclopropyl-phenyl)-oxazole-4-carboxylic acid [1-(3,5-difluoro-4-methanesulfonylamino-phenyl)-ethyl]-amide] | 48 | 35 | –
C[C@@H](NC(=O)c1coc(Oc2cccc(C(F)(F)F)c2C2CC2)n1)c1cc(F)c(NS(C)(=O)=O)c(F)c1 [Example 46, 2-(2-Cyclopropyl-3-trifluoromethyl-phenoxy)-oxazole-4-carboxylic acid [1-(3,5-difluoro-4-methanesulfonylamino-phenyl)-ethyl]-amide] | 430 | 53 | –
CS(=O)(=O)Nc1ccc(CNC(=O)c2ccc(-c3ccccc3C(F)(F)F)o2)cc1F [Example 117, 5-(2-Trifluoromethyl-phenyl)-furan-2-carboxylic acid 3-fluoro-4-methanesulfonylamino-benzylamide] | 680 | 39 | –
C[C@@H](NC(=O)c1coc(-c2cccc(C(F)(F)F)c2)n1)c1cc(F)c(NS(C)(=O)=O)c(F)c1 [Example 67, 2-(3-Trifluoromethyl-phenyl)-oxazole-4-carboxylic acid [1-(3,5-difluoro-4-methanesulfonylamino-phenyl)-ethyl]-amide] | 360 | 43 | –
